Patent US8906865B2, “Treatment of inflammation and/or endotoxic shock” (ISIS Innovation Limited, priority 2007, dated 2014)
Non-standard residues stand in square brackets, D forms with d. Residues, ends and D or L forms follow the SMILES beside them. *: point of attachment. Sta = CC(C)C[C@H](N)[C@@H](O)CC(=O)O; Isovaleryl = CC(C)CC(=O)*; Cbz = O=C(OCc1ccccc1)*; CH2F = FC*

What was measured:
[1] = tested on: PMΦ (peritoneal macrophages); assay: Macrophage chemotaxis assay (modified Boyden chamber); format: cell-based, mouse; conditions: for Macrophage chemotactic activity: migration over 4 h, compared with C140 and RANTES 25 ng/ml; for Concentration of maximal macrophage migration: tested 1 pM-100 nM
Protocol: PMθ (0.5×10^6) were allowed to migrate towards chemoattractant (Chemerin140 or Chemerin peptides) in the bottom well of a modified Boyden chamber over 4 h. Filters were fixed in 4% formalin, then migrated cell nuclei were stained with DAPI and visualised. Serum free media (SFM) were used as a negative control and the macrophage chemoattractant RANTES (25 ng/ml; 3 nM) as a positive control. The graphs indicate mean Migration Index (Chemoattractant % threshold area/SFM % threshold area)±SEM for each treatment group (n=5-6). p<0.001 ***; p<0.01 **; p<0.05 * relative to SFM treated wells.
PMθ were recruited following a 4 day peritoneal stimulation with BioGEL beads. Peritoneal cavities of male C57B16/J mice were lavaged with 5 ml PBS-2 mM EDTA. Cells were centrifuged and resuspended in RPMI supplemented with 0.5% BSA and 25 mM Hepes. Cells (0.5×10^6) were allowed to migrate towards chemoattractant (C140, C17m or C17m+C140) in the bottom well over 4 h. Filters were fixed in 4% formalin, then nuclei were stained with DAPI and visualised. Serum free media was used as a negative control (−/−). Cells were preincubated with Pertussis toxin (PTX) for 30 mins before the chemotaxis assay. The bar graphs in FIG. 11 show the mean Migration Index±SEM for each treatment group. Each bar represents at least triplicate wells and at least 3 pictures taken per treatment. p<0.001 ***; p<0.01 **; p<0.05 * relative to SFM treated wells unless otherwise stated.
Cell migration was assessed by use of transwell membranes (ChemoTX, 6-mm diameter, 8-μm pore size). Briefly, BioGEL-elicited cells were harvested and placed on transwell membranes (250 000 cells/membrane in RPMI supplemented with 25 mM Hepes and 0.1% bovine serum albumin. Cells were allowed to migrate toward Chemerin peptides (1 pM-100 nM) for 4 h. Signal transduction via G protein-coupled receptors was blocked by preincubating cells with pertussis toxin (PTX, 200 ng/ml, Sigma-Aldrich) for 30 mins before placing cells on transwell membranes. Migrated cells on the underside of membranes were fixed (3% formaldehyde) and stained with DAPI. Migration was quantified as total pixel count of DAPI stained nuclei under the confocal microscope (2 photos/membrane and a minimum of 3 replicate wells per treatment). Images were analyzed using Metamorph Offline software to determine percentage threshold areas (TA) occupied by migrated cells. Migration indices were obtained by dividing treatment TA by serum-free media TA. For secondary chemotaxis assays ChemoTx 3-mm diameter, 8-μm pore membranes were used with 50 000 cells/membrane.

[2] = tested on: Murine peritoneal macrophages (PMΦ); assay: Macrophage activation assay: LPS/IFNγ-induced inflammatory cytokine expression (ELISA, Luminex); format: cell-based, mouse; conditions: for Percentage inhibition of LPS/IFNγ-induced inflammatory cytokine expression: RANTES / Percentage inhibition of LPS/IFNγ-induced inflammatory cytokine expression: TNFα: PMΦ, pre-treatment 1 h (0.1 pM-100 nM), then LPS 100 ng/ml + IFNγ 20 ng/ml 15 h, optimal dose (1 pM Chemerin and C15, 100 pM C13 and C19); for Optimal dose (maximal response) for suppression of LPS/IFNγ-induced cytokine expression: macrophage activation assay; for Effect of protease inhibitor on chemerin-mediated suppression of MΦ activation (FIG. 1F): chemerin 1 pM + protease inhibitor 1 h, then LPS/IFNγ 15 h; for Anti-inflammatory activity in the MΦ activation assay: peptides 0.1 pM-100 nM
Protocol: Murine peritoneal macrophages (PMθ, also referred to as PMΦ herein) were cultured under various conditions: Untreated; LPS (100 ng/ml) and IFNγ (20 ng/ml) for 15 h; Chemerin (1 pM) pre-treatment for 1 h then LPS/IFNγ for 15 h; Leupeptin (protease inhibitor; 15 mg/ml) and Chemerin (1 pM) for 1 h then LPS/IFNγ for 15 h; or Dexamethasone (positive control; 1 μM pre-treatment for 1 h then LPS/IFNγ for 15 h.
Murine PMθ were cultured under various conditions: Untreated, LPS (100 ng/ml) and IFNγ (20 ng/ml) for 15 h; Chemerin peptides (at a concentration of 1 pM-100 nM) pre-treatment for 1 h then LPS/IFNγ for 15 h. […] Experiments were performed with triplicate determinations for each treatment. Representative data from five independent experiments employing cells from different groups of C57B16/J mice are shown. p<0.01 **; p<0.001 *** relative to LPS/IFNγ treated samples.
With reference to Table 1, anti-inflammatory activity of chemerin-derived peptides—Murine PMΦ were cultured as described for FIG. 1B and were challenged with LPS (100 ng/ml) and IFNγ (20 ng/ml) for 15 h with/without pre-treatment with peptides (0.1 pM-100 nM) for 1 h. […] Peptide sequences are: C11 (P144-A154; […]), C13 (P144-S156; […]), C15 (A140-A154; […]), C19 (A138-S156; […]; Seq ID: No. 37), N19 (E23-K41; […] Seq ID No: 44) and M20 (K86-K105; […] Seq ID No. 45). Control peptides: scrambled C15 (C15-S; […]) and mutant C15 (C15-M; […]; F148A & F153A). Data represent mean percentage inhibition of cytokine production by classically activated macrophages from 4-8 independent experiments as determined by ELISA and Luminex assay.
1 ml 2% BioGEL polyacrylamide beads in sterile Phosphate-Buffered Saline (PBS) were injected intraperitoneally (ip) into C57B1/6J mice. Four days after ip BioGEL administration, mice were sacrificed by the CO, method according to Home Office guidelines. Peritoneal cavities were flushed with 10 ml sterile PBS-2 mM EDTA to harvest BioGEL-evoked/elicited cellular infiltrate. Suspensions of harvested cells were centrifuged at 1000×g for 5 mins at 4° C. The supernatants were discarded and cell pellets were resuspended in 6 mls OptiMEM medium supplemented with 2 mM Glutamine, 50 units/ml Penicillin and 50 μg/ml Streptomycin. Macrophages were quantified following incubation on ice for 5-10 mins with Turk's solution using a haemocytometer. Cell suspensions (2 mls; 1.5×10^6/well) were plated in six-well tissue culture plates (35 mm diameter: Costar, UK) and allowed to adhere for 2 hours at 37° C. in a humidified atmosphere containing 5% CO2, to isolate macrophage populations by adherence. This gave greater than 95% purity assessed by cytospinning, staining of cells with Methylene Blue and Eosin and counting based on cellular morphology. Nonadherent cells (mainly granulocytes) were discarded and wells were washed three times with sterile PBS to remove loosely adherent or dead cells. […] To determine PTX sensitivity and dependency upon proteolysis, cells were pre-incubated with PTX (200 ng/ml) or Leupeptin (15 μg/ml). Additional cells were treated with peptides alone. Supernatants were harvested and stored at −20° C. until use in Enzyme-Linked Immunosorbance Assays (ELISAs) and Luminex assays. Cells were lysed to allow extraction of total RNA by the TRIZOL method. Lysates were stored at −80° C. until RNA extraction following manufacturer's guidelines (Qiagen, RNeasy Mini Prep Kit).
RANTES, Tumour necrosis factor (TNFα) and CCL9 concentrations in cell supernatants were assessed by ELISA. IL-12 p40, IL-10, IL-1β, TNFα, MCP-1 (Monocyte chemoattractant protein-1) and IL-6 levels were determined by Luminex multiplex bead assay (Bio-rad 6 plex assay). Lower limits of detection for ELISAs were 0.1-0.5 ng/ml and 10-50 pg/ml for Luminex assays.

[3] = quoted in the discussion; cited from earlier work
[4] = C13m 100 pM, C15m 1 pM, C17m 1 pM, pre-treatment 1 h then LPS/IFNγ 15 h

Compound | Macrophage chemotactic activity [1] | Percentage inhibition of LPS/IFNγ-induced inflammatory cytokine expression: RANTES [2] [%] | Percentage inhibition of LPS/IFNγ-induced inflammatory cytokine expression: TNFα [2] [%] | Effect of protease inhibitor on chemerin-mediated suppression of MΦ activation (FIG. 1F) [2] | Anti-inflammatory activity in the MΦ activation assay [2] | further results
PHGYFLPGQFAFS (listed as Mus sp.) [C13] | little chemotactic activity | 32 | 10 | – | – | Concentration of maximal macrophage migration [1]: 10 nM; Suppression of LPS/IFNγ-induced RANTES secretion (FIG. 2B) [2, 4]: 32%; Suppression of LPS/IFNγ-induced TNFα expression (FIG. 2B) [2, 4]: 10%; Optimal dose (maximal response) for suppression of LPS/IFNγ-induced cytokine expression [2]: 100 pM
CC(C)CC(=O)N[C@H](C(=O)N[C@H](C(=O)N[C@@H](CC(C)C)[C@@H](O)CC(=O)N[C@@H](C)C(=O)N[C@@H](CC(C)C)[C@@H](O)CC(=O)O)C(C)C)C(C)C [Pepstatin A, reference compound] (Isovaleryl-VV[Sta]A[Sta]-OH) | – | – | – | exerted no effect | – | –
CSCC[C@H](NC=O)C(=O)N[C@@H](CC(C)C)C(=O)N[C@@H](Cc1ccccc1)C(=O)O [fMLP, formyl-Methionyl-Leucyl-Phenylalanine] | – | – | – | – | – | Potency of comparison mediators [3]: 10^−11 M
Cl.NCCc1ccc(S(=O)(=O)F)cc1 [Pefabloc, reference compound] | – | – | – | exerted no effect | – | –
ELSETQRRSLQVALEEFHK (listed as Mus sp.) [N19, N-terminal peptide E23-K41] | – | 0 | 0 | – | devoid of anti-inflammatory activity | –
O=C(NC(Cc1ccccc1)C(=O)NC(Cc1ccccc1)C(=O)CF)OCc1ccccc1 (stereo not drawn) [Z-FF-FMK, reference compound] (Cbz-Phe-Phe-CH2F; configuration not given here) | – | – | – | independent of cathepsin L | – | –
RALRTK (listed as Mus sp.) [C6, 6 aa peptide removed during prochemerin cleavage, reference compound] | incapable of inducing MΦ migration | 0 | 0 | – | no detectable anti-inflammatory activity | –
AQAGEDPHGYFLPGQFAFS (listed as Mus sp.) [C19] | no chemotactic activity | 41 | 21 | – | – | Optimal dose (maximal response) for suppression of LPS/IFNγ-induced cytokine expression [2]: 100 pM
TNFα | – | – | – | – | – | Potency of comparison mediators [3]: 10^−11 M
KPECTIKPNGRRRKCLACIK (listed as Mus sp.) [M20, midstream peptide K86-K105] | – | 0 | 0 | – | devoid of anti-inflammatory activity | –
CCCC[C@@H](C=O)NC(=O)[C@H](CC(C)C)NC(=O)OCc1ccccc1 [calpeptin, reference compound] | – | – | – | dependent upon calpains | – | –
PHGYFLPGQFA (listed as Mus sp.) [C11] | little chemotactic activity | 0 | 0 | – | devoid of anti-inflammatory activity | Concentration of maximal macrophage migration [1]: 10 nM
CCCCC/C=C\C[C@@H](O)/C=C/C=C/C=C\[C@@H](O)CCCC(=O)O [LTB4, leukotriene B4] | – | – | – | – | – | Potency of comparison mediators [3]: 10^−11 M
FSRALRTK (listed as Mus sp.) [C8, 8 aa peptide removed during prochemerin cleavage, reference compound] | incapable of inducing MΦ migration | 0 | 0 | – | no detectable anti-inflammatory activity | –
CC(C)C[C@H](NC(=O)[C@H](Cc1ccccc1)NC(=O)OCc1ccccc1)C(=O)C=O [Z-FL-COCHO, reference compound] | – | – | – | dependent upon calpains and cathepsin S | – | –
CC(=O)N[C@@H](CC(C)C)C(=O)N[C@@H](CC(C)C)C(=O)N[C@H](C=O)CCCNC(=N)N [Leupeptin, reference compound] | – | – | – | abolished its anti-inflammatory effects | – | –
